From publication PMC11596392, “Enhanced Antibacterial, Anti-Inflammatory, and Antibiofilm Activities of Tryptophan-Substituted Peptides Derived from Cecropin A-Melittin Hybrid Peptide BP100” (Molecules, 2024) come the findings set out here.

One assay relates to S. aureus (KCTC 1621). The format is cell-based, Staphylococcus aureus. The following applies: broth microdilution in MHB, 37 °C, 24 h, 100% inhibition of growth. Here is the method: (§1) The antibacterial efficacy of the synthesized peptides was evaluated by determining the minimal inhibitory concentrations (MICs) against six standard bacterial strains and five drug-resistant bacterial strains using the Clinical and Laboratory Standards Institute (CLSI) microdilution method. Melittin served as the positive control.
(§2) The minimal inhibitory concentrations (MICs) of the peptides against bacterial strains were determined using a modified broth-microdilution method in accordance with the National Committee for Clinical Laboratory Standards (NCCLS) guidelines. Overnight cultures were diluted in cation-adjusted Mueller–Hinton Broth (MHB) to achieve an inoculum density of 2 × 10^6 CFU/mL. A two-fold serial dilution of the peptide solution (100 μL) was introduced into microtiter plates, followed by the addition of 100 μL of bacterial suspension. The plates were then incubated at 37 °C for 24 h to determine the MICs. Wells containing only culture media served as negative controls, while those with added bacteria functioned as positive controls. The MIC, expressed in μM, was defined as the lowest peptide concentration that prevented visible bacterial growth. This protocol was also employed to determine MICs in the presence of physiological salts (150 mM of NaCl, 4.5 mM of KCl, 6 μM of NH4Cl, 1 mM of MgCl2, 2.5 mM of CaCl2, and 4 μM of FeCl3) and 20% human serum to assess the peptides’ efficacy under conditions more closely resembling physiological environments. All experiments were conducted in triplicate and repeated three times independently to ensure reproducibility and statistical significance of the results.

Another assay relates to VREF (ATCC 51559). In kind it is cell-based, vancomycin-resistant Enterococcus faecium. The settings on record: broth microdilution in MHB, 37 °C, 24 h, 100% inhibition of growth. Here is the method: as §1, §2
Another assay has as its system MDRPA (CCARM 2095). The format is cell-based, multidrug-resistant Pseudomonas aeruginosa. The settings on record: broth microdilution in MHB, 37 °C, 24 h, 100% inhibition of growth. Here is the method: as §1, §2
Another assay has as its system MDRPA (CCARM 2109). The format is cell-based, multidrug-resistant Pseudomonas aeruginosa. The following applies: broth microdilution in MHB, 37 °C, 24 h, 100% inhibition of growth. On the procedure: as §1, §2
In assay [1] the test system is MDRPA (CCARM 2095) biofilm formation. The format is cell-based, multidrug-resistant Pseudomonas aeruginosa. The settings on record: overnight 37 °C, crystal violet staining; for MBIC50: 50% inhibition; for MBIC90: 90% inhibition. The text has this:
Bacterial biofilms, comprising communities of bacterial cells encased in a matrix of polysaccharides and nucleic acids, present a significant challenge for conventional antibiotics due to the protective nature of this matrix. Biofilms can enhance bacterial resistance to antibiotics by up to 1000-fold compared to planktonic bacteria. To address this issue, there is an urgent need to discover and develop novel alternative therapeutic agents capable of effectively combating biofilm-forming bacteria. […] Our research specifically focused on evaluating the impact of BP100 and its analogs on biofilm formation and eradication using multidrug-resistant Pseudomonas aeruginosa (MDRPA), a common pathogen responsible for biofilm-mediated nosocomial infections. The adhered biomass was quantified using crystal violet staining, and the minimum biofilm inhibitory concentration (MBIC90) was determined as the lowest concentration required to inhibit 90% of biofilm growth relative to the positive control. […] Human cathelicidin LL-37 is well-documented for its potent antibiofilm properties.
The inhibitory activity of the peptides on biofilm formation was evaluated against multidrug-resistant Pseudomonas aeruginosa (MDRPA) (CCARM 2095) using a biofilm inhibition assay to determine the minimal biofilm inhibitory concentration (MBIC). Peptide solutions were serially diluted in sterile water and aliquoted (100 μL) into a 96-well Costar polypropylene plate (Corning Inc., Corning, NY, USA). An equal volume of MDRPA suspension in Mueller–Hinton Broth (MHB), adjusted to 1 × 10^6 CFU/mL, was added to each well, resulting in a final inoculum density of 5 × 10^5 CFU/mL. Following overnight incubation at 37 °C, bacterial growth was quantified by measuring the optical density (OD) at 595 nm. Planktonic cells were then discarded, and the attached biofilms were washed thrice with distilled water. Residual biofilms were stained with 0.1% crystal violet for five minutes, washed to remove non-adherent dye, and subsequently destained using 95% ethanol. The OD at 595 nm was measured again to assess the biofilm mass. Control wells contained untreated bacteria. The MBIC was defined as the lowest peptide concentration that inhibited any residual crystal violet staining or biofilm formation. All assays were conducted in triplicate to ensure reproducibility. This method allows for the quantitative assessment of the peptides’ ability to prevent biofilm formation, a critical virulence factor in many bacterial infections, particularly those caused by multidrug-resistant strains.

The test system of assay [2] is preformed MDRPA (CCARM 2095) biofilms. The format is cell-based, multidrug-resistant Pseudomonas aeruginosa. The settings on record: 24 h treatment; for MBEC50: 50% eradication; for MBEC90: 90% eradication. On the procedure: While preventing biofilm formation on surfaces is crucial, treating established biofilm infections presents a significant challenge due to the extracellular polymeric substance (EPS) matrix hindering antibiotic penetration and the high cell density within mature biofilms. To address this challenge, we evaluated the ability of BP100 and its analogs to eradicate established MDRPA biofilms over a 24 h period. The minimum biofilm eradication concentration (MBEC90) was determined using crystal violet staining as the lowest concentration that reduced biomass by more than 90%. Among these peptides, BP5, BP6, BP7, BP8, BP9, BP11, and BP13 eradicated preformed MDRPA biofilms by more than 90% at a concentration of 8 μM (Figure 3c,d and Table 3).
The minimal biofilm eradication concentration (MBEC) for peptides against the multidrug-resistant Pseudomonas aeruginosa (MDRPA) (CCARM 2095) strain was assessed using the Calgary Biofilm Device (CBD), supplied by Innovotech, Edmonton, AB, Canada. A bacterial suspension with a density of (1 × 10^6) CFU/mL in (150 µL) of Luria–Bertani (LB) media was dispensed into each well of a 96-well microtiter plate, which was equipped with a peg lid (Innovotech, product code: 19111). This plate was incubated at 37 °C for 24 h with agitation at 110 rpm, promoting biofilm formation on the pegs. Subsequently, the peg lid was washed with phosphate-buffered saline (PBS, 0.01 M) and relocated to a fresh plate containing varying peptide concentrations (200 µL per well). The biofilms were then subjected to these peptides under the same incubation conditions. After another PBS rinse, the peg lid was moved to a recovery plate filled with (200 µL) of LB media per well. To detach the biofilms from the pegs, the recovery plate underwent sonication in a water bath for 10 to 15 min. Finally, the recovery plate was incubated at 37 °C for 24 h with agitation at 110 rpm, allowing any surviving bacteria to proliferate and cause turbidity. The MBEC is defined as the lowest concentration of peptides that inhibited turbidity formation in the recovery plate in comparison to sterility controls. This experiment was conducted in triplicate, and the median value from each trial was recorded.

Where no end group is shown, it is not given here.

Consider `CC[C@H](C)[C@H](NC(=O)[C@H](CCCCN)NC(=O)[C@H](CCCCN)NC(=O)[C@H](Cc1c[nH]c2ccccc12)NC(=O)[C@H](CC(C)C)NC(=O)[C@H](CCCCN)NC(=O)[C@@H](N)CCCCN)C(=O)N[C@@H](CC(C)C)C(=O)N[C@@H](CCCCN)C(=O)N[C@@H](Cc1ccc(O)cc1)C(=O)N[C@@H](CC(C)C)C(N)=O` [BP1], for which the “Minimal Inhibitory Concentration (MIC)” value with S. aureus (KCTC 1621) worked out at 8 µM; with VREF (ATCC 51559), 64 µM; in the assay on MDRPA (CCARM 2095), 16 µM; with MDRPA (CCARM 2109), 16 µM. Moreover, in assay [1], the MBIC50 lay within 4 to 8 µM. In assay [1], the MBIC90 turned out to be 8 µM. In assay [2], this compound returned an MBEC50 of 8 µM. The same compound came in with an MBEC90 in assay [2] of 16 µM.
Turning to `CC(C)C[C@H](NC(=O)[C@H](Cc1ccc(O)cc1)NC(=O)[C@H](CCCCN)NC(=O)[C@H](CC(C)C)NC(=O)[C@H](Cc1c[nH]c2ccccc12)NC(=O)[C@H](CCCCN)NC(=O)[C@H](CCCCN)NC(=O)[C@H](Cc1ccccc1)NC(=O)[C@H](CC(C)C)NC(=O)[C@H](CCCCN)NC(=O)[C@@H](N)CCCCN)C(N)=O` [BP2], the “Minimal Inhibitory Concentration (MIC)” value was determined as 4 µM in the assay with S. aureus (KCTC 1621), 128 µM with VREF (ATCC 51559), 8 µM in the assay on MDRPA (CCARM 2095) and 4 µM with MDRPA (CCARM 2109). This compound also registered an MBIC50 in assay [1] of 8 to 16 µM. This compound also returned an MBIC90 in assay [1] of 16 µM. The compound also returned an MBEC50 in assay [2] of 16 to 32 µM. In assay [2], the MBEC90 worked out at 32 µM.
With `CC[C@H](C)[C@H](NC(=O)[C@H](CCCCN)NC(=O)[C@H](CCCCN)NC(=O)[C@H](Cc1ccccc1)NC(=O)[C@H](CC(C)C)NC(=O)[C@H](CCCCN)NC(=O)[C@@H](N)CCCCN)C(=O)N[C@@H](Cc1c[nH]c2ccccc12)C(=O)N[C@@H](CCCCN)C(=O)N[C@@H](Cc1ccc(O)cc1)C(=O)N[C@@H](CC(C)C)C(N)=O` [BP3], the “Minimal Inhibitory Concentration (MIC)” value in the assay on S. aureus (KCTC 1621) came to 8 µM; with VREF (ATCC 51559), 64 µM; in the assay on MDRPA (CCARM 2095), 16 µM; with MDRPA (CCARM 2109), 16 µM. The same compound returned an MBIC50 in assay [1] of 8 to 16 µM. This compound gave an MBIC90 in assay [1] of 16 µM. The compound further gave an MBEC50 in assay [2] of 16 µM. Also, the MBEC90 in assay [2] is 32 µM.
Consider `CC[C@H](C)[C@H](NC(=O)[C@H](CCCCN)NC(=O)[C@H](CCCCN)NC(=O)[C@H](Cc1ccccc1)NC(=O)[C@H](CC(C)C)NC(=O)[C@H](CCCCN)NC(=O)[C@@H](N)CCCCN)C(=O)N[C@@H](CC(C)C)C(=O)N[C@@H](CCCCN)C(=O)N[C@@H](Cc1c[nH]c2ccccc12)C(=O)N[C@@H](CC(C)C)C(N)=O` [BP4], for which the “Minimal Inhibitory Concentration (MIC)” value in the assay with S. aureus (KCTC 1621) stood at 4 µM; in the assay with VREF (ATCC 51559), 16 µM; with MDRPA (CCARM 2095) it was 8 µM; in the assay with MDRPA (CCARM 2109) it was 16 µM. Besides, the MBIC50 in assay [1] was 4 to 8 µM. This compound also gave an MBIC90 in assay [1] of 8 µM. The MBEC50 in assay [2] worked out at 8 µM. This compound came in with an MBEC90 in assay [2] of 32 µM.
For the compound `CC[C@H](C)[C@H](NC(=O)[C@H](CCCCN)NC(=O)[C@H](CCCCN)NC(=O)[C@H](Cc1ccccc1)NC(=O)[C@H](CC(C)C)NC(=O)[C@H](CCCCN)NC(=O)[C@@H](N)CCCCN)C(=O)N[C@@H](CC(C)C)C(=O)N[C@@H](CCCCN)C(=O)N[C@@H](Cc1ccc(O)cc1)C(=O)N[C@@H](CC(C)C)C(N)=O` [BP100], the “Minimal Inhibitory Concentration (MIC)” value was 4 µM in the assay with S. aureus (KCTC 1621), 64 µM in the assay with VREF (ATCC 51559), 32 µM with MDRPA (CCARM 2095) and 16 µM with MDRPA (CCARM 2109). Further, the MBIC50 in assay [1] was in the range of 4 to 8 µM. The compound also registered an MBIC90 in assay [1] of 8 µM. In addition, the MBEC50 in assay [2] is 16 to 32 µM. The MBEC90 in assay [2] is 32 µM.
For the compound KKLFKKILKWW-NH2 [BP12], the “Minimal Inhibitory Concentration (MIC)” value in the assay on S. aureus (KCTC 1621) amounted to 4 µM; in the assay with VREF (ATCC 51559), 128 µM; with MDRPA (CCARM 2095) it was 16 µM; with MDRPA (CCARM 2109), 16 µM. The MBIC50 in assay [1] was 4 to 8 µM. The MBIC90 in assay [1] worked out at 8 µM. For the same compound, the MBEC50 in assay [2] was in the range of 8 to 16 µM. For the same compound, in assay [2], the MBEC90 came out at 16 µM.
With KKLFKKIWKWL-NH2 [BP11], the “Minimal Inhibitory Concentration (MIC)” value in the assay with S. aureus (KCTC 1621) came out at 4 µM; in the assay on VREF (ATCC 51559) it was 16 µM; in the assay with MDRPA (CCARM 2095) it was 8 µM; with MDRPA (CCARM 2109), 16 µM. In assay [1], this compound yielded an MBIC50 of 4 to 8 µM. Besides, the MBIC90 in assay [1] was 8 µM. The MBEC50 in assay [2] was 4 to 8 µM. In assay [2], the MBEC90 is 8 µM.
As to KKLFKKWLKYW-NH2 [BP10], the “Minimal Inhibitory Concentration (MIC)” value in the assay on S. aureus (KCTC 1621) was 8 µM; in the assay on VREF (ATCC 51559), 128 µM; in the assay with MDRPA (CCARM 2095) it was 16 µM; in the assay on MDRPA (CCARM 2109) it was 16 µM. Also, in assay [1], the MBIC50 was in the range of 16 to 32 µM. Also, the MBIC90 in assay [1] stood at 32 µM. Also, in assay [2], the MBEC50 is 8 to 16 µM. The MBEC90 in assay [2] is 16 µM.
With KKLFKKWWKWL-NH2 [BP16], the “Minimal Inhibitory Concentration (MIC)” value in the assay on S. aureus (KCTC 1621) stood at 16 µM; in the assay with VREF (ATCC 51559), 64 µM; in the assay with MDRPA (CCARM 2095), 32 µM; in the assay with MDRPA (CCARM 2109) it was 32 µM. This compound returned an MBIC50 in assay [1] of 8 to 16 µM. The compound also showed an MBIC90 in assay [1] of 16 µM. The compound also showed an MBEC50 in assay [2] of 16 µM. Besides, the MBEC90 in assay [2] turned out to be 32 µM.
